The values below come from PMC3747139 (PLoS ONE, 2013).

pIC50, pKd: −log10 of the molar value. Values joined by “and” are separate entries in the source; they are usually repeats but may differ in a detail not shown here. Identical values can stand only once. Like-named read-outs stand apart in the source and are kept apart here. Marks after values point to notes of the source that are not given here.

The test system of data set [1] is B16F10 cells. The data set can be described thus: MTT assay. Type of data set: cell-based, human. The conditions noted are these: Mus musculus, B16-F10, B16F10 cells, 24 h and 48 h, read-out: half maximal inhibitory concentration (IC50). The method, then:
Normal human cell lines (CRL-2115, CRL-2120) as well as human cancer cell lines (NCM-460, He La, MCF-7, B16F10 and A549) were cultured according to the supplier's recommendations. To study the cytotoxicity of the ligands, after 80% confluence, cells were trypsinized with 0.1% trypsin-EDTA and harvested by centrifugation at 500× g. Serial dilutions of cells were made from 1×10^6 to 1×10^3 cells per ml. The cells were seeded in triplicate in a 96 well plate. The suspended cells were treated with 50 µM, 100 µM, 150 µM, 200 µM, 250 µM and 300 µM of each ligand, at two different time points (24 h and 48 h). Normal as well as tumor cells to which no ligand was added served as control. After incubation, MTT (100 µl, 5 mg mL^−1) solution was added to each well and the cell viability was determined by measuring the ability of cells to transform MTT to a purple coloured formazan dye. The absorbance of samples at 570 nm was measured using a UV-Visible spectrophotometer. Percentage of viable cells was calculated using the formula given below. [drawing 1] Where the OD570 (sample) corresponds to absorbance obtained from the wells treated with ligands and the OD570 (control) represents the absorbance from the wells in which no ligand was added.

Data set [2] can be described thus: Cell count assay (trypan blue). Type of data set: cell-based. On the set-up: concentration or dose not given beside the values. Conditions: human; for viability at 24 h: read-out: Number of viable cells after 24 h of ligand treatment; for viability at 48 h: read-out: Number of viable cells after 48 h of ligand treatment. The method, then:
Normal and tumor cell lines were seeded at 20000–40000 cells/cm^2 with 0.2 mL/cm^2 media and incubated for 48 h at 37°C, 6% CO2, 95% relative humidity. […] After 24 h and 48 h of incubation, cells were washed with 300 µl PBS or 0.02% EDTA, trypsinized, followed by harvesting at 37°C. 200 µl cell suspension was transferred into 1.5 ml microcentrifuge tube. To the cell suspension, 300 µl PBS followed by 500 µl of 0.4% trypan blue solution was added. To get the homogenised solution, the microcentrifuge tube was gently tapped for 5 min, 20 µl of cell suspension was loaded in to a chamber of the haemocytometer.

The subject of data set [3] is B16F10 cells. In words: Flow cytometry cell cycle analysis (PI). Type of data set: cell-based, human. The conditions noted are these: for cells in G0/G1 phase / cells in G2/M phase / cells in S phase / cells in Sub G1 phase: 200 µM L1, 125 µM L2, 50 µM L3, 3 h. The method, then: Since MTT and cell culture assays yielded encouraging results with B16F10 cells they were used for confocal and flow cytometry experiments. After 90% confluence, the cells were treated with 200 µM, 125 µM and 50 µM of L1, L2, L3 respectively, for 3 h. 1×10^6 cells were washed with 2× binding buffer and resuspended in 100 µl binding buffer and Annexin-V-FITC (1.0 µg). The cells were then incubated at room temperature for 10 min, followed by the addition of 400 µl of binding buffer containing 1 µl of Propidium Iodide (PI). Stained cells were analyzed using FACS Calibur Flow Cytometer from B.D. Biosceinces (USA). Annexin-V-FITC and PI labelled cells were excited using 488 nm solid-state laser and fluorescence emission intensity was captured using 530/30 and 585/42 band pass filters respectively.

Data set [4] relates to B16F10 melanoma cells. In words: Preclinical study: tumor size in tumor-induced mice. Format: in vivo. Conditions: C57BL6/J mice with B16F10 tumor; 200 µM L1, 125 µM L2, 50 µM L3; end of experiment. The method, then: C57BL6/J mice were used from the animal house facility located at CCMB (Hyderabad, India). All animal experimental studies were carried out in strict accordance with the recommendations in the guide for the care and use of laboratory animals of Centre for Cellular and Molecular Biology (CCMB). All the animal experimental protocols were approved by the Institutional Animal Ethical Committee (IAEC) of Centre for Cellular and Molecular Biology (CCMB with Permit number: CPCSEA 20/1999, Ministry of Environment and Forest, Government of India).The protocol was approved by the Institutional Animal Ethical Committee (IAEC) of CCMB (Protocol number: IAEC 16/2012). All the surgery was performed under sodium pentobarbital anaesthesia, and all efforts were made to minimize suffering. C57BL6/J mice, 6–8 weeks old, were subcutaneously injected with 2×10^5 B16F10 melanoma cells, in the […] region. After the tumor attained a size of 500–1000 mm^3 (≈9 days following cancer cell implantation), mice were grouped and treated as follows.
Group (i) was treated with vehicle control (4 mice), group (ii) with 200 µM of L1 (4 mice), group (iii) with 125 µM of L2 (4 mice) and group (iv) with 50 µM of L3 (4 mice). These experiments were repeated thrice and mean values were considered. Size of tumor was measured every day at a fixed time. The tumor sizes were calculated using the formula (0.5 ab^2), where ‘a’ was the largest dimension and ‘b’ was the smallest dimension of the tumor. The experiment was terminated when the average tumor volume of the control/treated group was 10000–12000 mm^3.

Data set [5] concerns HQF DNA d(TTAGGG)4. In words: Isothermal titration calorimetry. Format: binding, human. The conditions noted are these: ITC; for K1 x 10^-7 / K2 x 10^-5: two-sites model, 100 mM KBPES pH 7.0; for K1 x 10^-7: mode-1, 25°C; for K2 x 10^-5: mode-2, 25°C; for pKd: quadruplex DNA, read-out: Kd, higher affinity interaction (mode-1). The protocol: (§1) When quadruplex DNA melts to form ssDNA structure, SG fluorescence intensity gradually reduces as SG has no binding to ssDNA. Each time, 5 µM of HQF DNA [d(T2AG3)4)], 5 µM of dsDNA (prepared by mixing equal concentration of poly-dA-dT and poly-dT-dA), 5 µM ssDNA ( poly dT alone) and 1 µM of each ligand was incubated at 4°C for 16 h, and used for melting studies. […] Affinity, stoichiometry and thermodynamic parameters for quadruplex-ligand complex were studied with 60 µM of ligand and 10 µM of HQF DNA using Microcal VP-ITC (Northampton, MA, USA). Ligand addition to G-quadruplex DNA was made every 180 seconds. Titration experiments were performed thrice and blank correction was made each time to minimize error.
On integrating the heats produced per injection, with respect to time and conversion to per mole basis, the binding isotherm (Figure 8A) corresponding to each ligand was obtained. […] After making blank correction, the heat data was fitted with “two-independent sites” model and analyzed using Origin 7.1 to calculate thermodynamic parameters.

Data set [6] relates to HQF DNA [d(T2AG3)4]. The data set can be described thus: SYBR Green melting study with HQF DNA. The conditions noted are these: for Tm of HQF DNA with ligand: 5 µM HQF DNA, 1 µM ligand, HQF DNA alone 27°C; for Tm: melting temperature of HQF DNA (5 µM) in presence of 1 µM ligand. Format: binding, human. The method, then:
as §1

Data set [7] concerns dsDNA (poly-dA-dT and poly-dT-dA). The data set can be described thus: SYBR Green melting study with dsDNA. Format: binding. The conditions noted are these: 5 µM dsDNA, 1 µM ligand; dsDNA alone 24°C. The protocol:
as §1

Where [8] appears, read: CRL-2115 cells (normal cell line), CRL-2115, 24 h.
Where [9] appears, read: CRL-2115 cells (normal cell line), CRL-2115, 48 h.
[10] abbreviates: CRL-2120 cells (normal cell line), CRL-2120, 24 h.
The mark [11] stands for this setting: CRL-2120 cells (normal cell line), CRL-2120, 48 h.
The mark [12] stands for this setting: NCM-460 cells (normal cell line), NCM-460, 24 h.
Where [13] appears, read: NCM-460 cells (normal cell line), NCM-460, 48 h.

`Cc1cn([C@H]2C[C@H](N=[N+]=[N-])[C@@H](CO)O2)c(=O)[nH]c1=O` [Ligand L1, 1-(4-azido 5-(hydroxylmethyl)tetrahydrofuran-2-yl)-5-methyl pyrimidi-ne-2,4(1H,3H)-dione, reference compound]: in data set [1], the pIC50 was approximately 3.70. Also, the viability at 24 h in data set [2] (setting [8]) was 80 to 90%. Further, the viability at 48 h in data set [2] (setting [9]) was in the range of 50 to 60%. For the same molecule, the viability at 24 h in data set [2] (setting [10]) was 80 to 90%. In addition, the viability at 48 h in data set [2] (setting [11]) fell in the range of 50 to 60%. The viability at 24 h in data set [2] (setting [12]) was 80 to 90%. The viability at 48 h in data set [2] (setting [13]) lay within 50 to 60%. Moreover, in data set [3], the “cells in G0/G1 phase” value came out at 26.94%; the “cells in G2/M phase” value is 5.58% and 05.58%; the “cells in S phase” value was 06.38%; the “cells in Sub G1 phase” value was 61.10%. Besides, the tumor size in data set [4] was 6000–8000 mm^3. In data set [5], the “K1 x 10^-7” value is 0.72 (± 0.3) and the “K2 x 10^-5” value was 2.14 (± 0.2). For the same molecule, in data set [6], the “Tm of HQF DNA with ligand” value was determined as 28 °C and the Tm is 28 ^o C.

`Cc1cn([C@H]2C[C@H](n3cc(-c4ccccc4)nn3)[C@@H](CO)O2)c(=O)[nH]c1=O` [Ligand L2]: in data set [1], the pIC50 is approximately 3.90. The viability at 24 h in data set [2] (setting [8]) was in the range of 80 to 90%. Further, in data set [2] (setting [9]), the viability at 48 h is 50 to 60%. Moreover, in data set [2] (setting [10]), the viability at 24 h was in the range of 80 to 90%. The viability at 48 h in data set [2] (setting [11]) was in the range of 50 to 60%. Also, the viability at 24 h in data set [2] (setting [12]) was 80 to 90%. For the same molecule, the viability at 48 h in data set [2] (setting [13]) lay in the range of 50 to 60%. Also, in data set [3], the “cells in G0/G1 phase” value is on record as 07.78%; the “cells in G2/M phase” value was 1.93% and 01.93%; the “cells in S phase” value is 8.77% and 08.77%; the “cells in Sub G1 phase” value was 81.5% and 81.52%. Further, the tumor size in data set [4] is 6000–8000 mm^3. Further, in data set [5], the pKd was approximately 7.00, the “K1 x 10^-7” value is reported as 1.35 (± 0.1) and the “K2 x 10^-5” value is given as 2.61 (± 0.3). Also, in data set [6], the “Tm of HQF DNA with ligand” value was 42 °C and the Tm was 42 ^o C.

As to `Cc1cn([C@H]2C[C@H](n3cc(-c4ccc(Cl)cc4)nn3)[C@@H](CO)O2)c(=O)[nH]c1=O` [Ligand L3, 1-(4-(4-(4-chlorophenly)-1H-1,2,3-triazole-1-yl)-5-(hydroxymethyl)tetrahydrofuran-2-yl)-5-methylpyrimidine-2,3(1H,3H)-dione], the pIC50 in data set [1] was 4.30. Besides, in data set [2] (setting [8]), the viability at 24 h lay within 80 to 90%. Moreover, the viability at 48 h in data set [2] (setting [9]) lay in the range of 50 to 60%. In addition, in data set [2] (setting [10]), the viability at 24 h lay in the range of 80 to 90%. Moreover, the viability at 48 h in data set [2] (setting [11]) was in the range of 50 to 60%. The viability at 24 h in data set [2] (setting [12]) was 80 to 90%. The viability at 48 h in data set [2] (setting [13]) is 50 to 60%. In addition, in data set [3], the “cells in G0/G1 phase” value is 4.46% and 04.46%; the “cells in G2/M phase” value is 0.91% and 00.91%; the “cells in S phase” value is 5.36% and 05.36%; the “cells in Sub G1 phase” value is given as 89.27%. Also, the “subG1 cell population enhanced compared to other nucleoside ligands” value in data set [3] (L3 versus L1 and L2) was 10–30%. Besides, the tumor size entry in data set [4] is recorded as “≈ 4500 mm^3”. For the same molecule, in data set [5], the pKd is approximately 7.00 and the “K2 x 10^-5” value is 2.82 (±0.5). Moreover, in data set [6], the “Tm of HQF DNA with ligand” value is 52 °C and the Tm is on record as 52 ^o C. Besides, the “Tm of dsDNA with ligand” value in data set [7] was found to be 25 °C.
